Data taken from ChEMBL document CHEMBL1201862, “PubChem BioAssay data set” (2004).
Values joined by “and” are separate entries in the source; they are usually repeats but may differ in a detail not shown here. Equal entries are not always repeated. Active and inactive are the calls of the source.

Columns and labels:
P388/ADR = test: cells; type: functional; settings: Mus musculus
SN12K1 = test: cells; type: functional; settings: Homo sapiens
P388 = test: cells; type: functional; settings: Mus musculus
Cytochrome P450 3A4 = Cytochrome P450 3A4 (Homo sapiens, UniProt P08684);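 further: CYP3A4 tested as one member of a cytochrome P450 panel screen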
Cytochrome P450 2C9 = Cytochrome P450 2C9 (Homo sapiens, UniProt P11712)
[1] = biological target: T1, Heat shock factor protein 1 (Mus musculus, UniProt P38532); test: enhancement of HSF1-driven luciferase signal – cell-based, NIH3T3, luminescence, dose retest, confirmation (AID 435004); type: functional;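 further: stress induced by proteasome inhibitor MG132 added 30 min after compound; luciferase reporter driven by HSF1 response element in NIH3T3 cells; actives raise luminescence as potentiators of the MG132 stress response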
T1 sequence (P38532 whole entry): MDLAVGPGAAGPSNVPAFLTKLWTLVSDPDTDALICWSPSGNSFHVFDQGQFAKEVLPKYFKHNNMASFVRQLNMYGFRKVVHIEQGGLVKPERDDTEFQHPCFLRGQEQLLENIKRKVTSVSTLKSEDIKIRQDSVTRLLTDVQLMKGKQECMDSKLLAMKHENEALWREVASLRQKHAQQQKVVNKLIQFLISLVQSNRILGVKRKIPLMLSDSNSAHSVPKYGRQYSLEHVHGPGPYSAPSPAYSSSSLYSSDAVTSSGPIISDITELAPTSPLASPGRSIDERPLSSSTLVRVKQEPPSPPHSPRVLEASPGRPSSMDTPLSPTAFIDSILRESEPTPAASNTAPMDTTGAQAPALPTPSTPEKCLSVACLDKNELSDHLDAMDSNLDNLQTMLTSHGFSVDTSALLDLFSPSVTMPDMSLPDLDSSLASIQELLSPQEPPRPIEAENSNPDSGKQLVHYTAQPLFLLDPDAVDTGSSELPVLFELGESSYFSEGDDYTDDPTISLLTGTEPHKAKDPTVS

[2] = biological target: T2, Corticotropin-releasing factor receptor 2/Corticotropin-releasing factor-binding protein (Homo sapiens, UniProt P24387+Q13324); test: Dose Response confirmation of uHTS hits for small molecule antagonists of the CRF-binding protein and CRF-R2 receptor complex.; type: functional; settings: read-out: IC50_Mean
T2 sequence (Q13324 whole entry): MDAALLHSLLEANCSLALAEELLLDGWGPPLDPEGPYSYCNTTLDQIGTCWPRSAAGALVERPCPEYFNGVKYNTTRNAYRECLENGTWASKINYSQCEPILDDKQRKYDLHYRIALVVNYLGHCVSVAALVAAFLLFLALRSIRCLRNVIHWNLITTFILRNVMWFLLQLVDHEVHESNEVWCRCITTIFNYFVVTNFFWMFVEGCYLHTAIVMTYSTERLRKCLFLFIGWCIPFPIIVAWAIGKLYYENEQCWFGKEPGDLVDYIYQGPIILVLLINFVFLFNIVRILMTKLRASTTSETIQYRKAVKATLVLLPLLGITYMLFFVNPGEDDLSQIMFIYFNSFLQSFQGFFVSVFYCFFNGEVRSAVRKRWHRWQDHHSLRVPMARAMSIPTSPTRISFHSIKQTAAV
T2 sequence (P24387 whole entry): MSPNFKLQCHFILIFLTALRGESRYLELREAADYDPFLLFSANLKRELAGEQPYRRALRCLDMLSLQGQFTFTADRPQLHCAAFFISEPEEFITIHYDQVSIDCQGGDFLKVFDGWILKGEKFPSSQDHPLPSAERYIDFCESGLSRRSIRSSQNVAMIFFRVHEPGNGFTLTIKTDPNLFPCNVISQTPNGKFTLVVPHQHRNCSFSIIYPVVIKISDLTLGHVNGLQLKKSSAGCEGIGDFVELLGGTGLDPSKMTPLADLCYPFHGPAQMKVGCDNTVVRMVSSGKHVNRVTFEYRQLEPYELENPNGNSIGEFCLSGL

[3] = biological target: T2, Corticotropin-releasing factor receptor 2/Corticotropin-releasing factor-binding protein; test: activators of CRF receptor 2 with binding protein – uHTS hits, confirmation (AID 602473); type: functional; settings: read-out: EC50_Mean
Cytochrome P450 1A2 = biological target: T3, Cytochrome P450 1A2 (Homo sapiens, UniProt P05177);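 further: PubChem cytochrome P450 panel assay, CYP1A2 panel member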
T3 sequence (P05177 whole entry): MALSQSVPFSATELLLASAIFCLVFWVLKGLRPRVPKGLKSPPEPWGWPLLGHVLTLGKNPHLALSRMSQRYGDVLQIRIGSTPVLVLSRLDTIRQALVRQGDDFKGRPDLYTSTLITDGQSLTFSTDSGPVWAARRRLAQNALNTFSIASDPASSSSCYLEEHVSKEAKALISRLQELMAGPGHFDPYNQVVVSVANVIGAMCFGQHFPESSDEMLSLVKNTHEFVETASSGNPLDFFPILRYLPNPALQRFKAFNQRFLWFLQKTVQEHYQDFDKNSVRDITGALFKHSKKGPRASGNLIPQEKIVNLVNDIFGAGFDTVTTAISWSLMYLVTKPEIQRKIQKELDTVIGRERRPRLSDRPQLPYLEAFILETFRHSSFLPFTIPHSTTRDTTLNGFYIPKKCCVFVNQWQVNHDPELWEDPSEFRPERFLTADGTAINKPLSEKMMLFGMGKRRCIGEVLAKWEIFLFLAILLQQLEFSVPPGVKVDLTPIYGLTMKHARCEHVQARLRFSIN

Chain of Cytochrome P450 2C9 (P11712 whole entry): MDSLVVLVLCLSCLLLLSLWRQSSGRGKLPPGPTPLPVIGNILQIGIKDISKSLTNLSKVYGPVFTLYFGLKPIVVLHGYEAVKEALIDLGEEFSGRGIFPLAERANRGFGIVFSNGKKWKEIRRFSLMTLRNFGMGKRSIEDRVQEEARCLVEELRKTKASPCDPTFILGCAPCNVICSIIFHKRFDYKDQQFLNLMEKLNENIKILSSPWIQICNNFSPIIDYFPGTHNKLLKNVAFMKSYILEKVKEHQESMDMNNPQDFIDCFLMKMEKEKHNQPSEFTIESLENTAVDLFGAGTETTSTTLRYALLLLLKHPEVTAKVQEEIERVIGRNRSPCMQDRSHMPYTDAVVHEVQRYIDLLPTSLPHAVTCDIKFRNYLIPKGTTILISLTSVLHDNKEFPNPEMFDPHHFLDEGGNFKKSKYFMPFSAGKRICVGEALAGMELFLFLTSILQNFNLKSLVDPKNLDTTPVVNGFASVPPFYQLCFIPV
Chain of Cytochrome P450 3A4 (P08684 whole entry): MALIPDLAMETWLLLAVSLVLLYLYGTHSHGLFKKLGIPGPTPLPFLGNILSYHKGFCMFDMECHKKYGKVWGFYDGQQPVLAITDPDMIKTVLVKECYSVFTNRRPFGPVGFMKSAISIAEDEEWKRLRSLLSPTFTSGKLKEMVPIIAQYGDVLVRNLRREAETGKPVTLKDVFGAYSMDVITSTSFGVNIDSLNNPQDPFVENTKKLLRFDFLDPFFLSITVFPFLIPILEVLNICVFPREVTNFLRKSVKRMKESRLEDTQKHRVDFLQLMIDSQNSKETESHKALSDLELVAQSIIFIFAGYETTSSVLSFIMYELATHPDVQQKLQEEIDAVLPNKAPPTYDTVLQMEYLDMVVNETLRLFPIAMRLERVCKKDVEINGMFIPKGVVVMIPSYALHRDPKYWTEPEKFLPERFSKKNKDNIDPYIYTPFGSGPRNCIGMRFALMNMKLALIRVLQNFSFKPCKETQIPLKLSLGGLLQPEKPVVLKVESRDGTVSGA

Structure (SMILES)	GI50 (P388/ADR)	GI50 (SN12K1)	GI50 (P388)	AC50 (Cytochrome P450 3A4)	further results
CCCCCCCCCCCCOCCCOP(=O)([O-])OCC[N+](C)(C)C	> 100 µM (inactive)	> 100 µM (inactive)	27.9 µM (inactive)	–	–
O=c1c(-c2ccccc2)nc2cnc(N3CCOCC3)nc2n1-c1ccccc1	–	–	–	20 µM (inconclusive)	–
CC1CC(C)(O)C2C3(C)CCCC2(COC3=O)C12CCC1(CCOC1=O)O2 (centres undefined)	141 µM (inactive)	> 250 µM (inactive)	> 250 µM (inactive)	–	–
O=C1c2ccccc2C(O)(C(=O)O)C1(O)CC=C(Cl)Cl (centres undefined)	> 70.3 µM (inactive)	> 125 µM (inactive)	> 125 µM (inactive)	–	–
COc1ccc(CNc2nc3nc4c(c(O)n3n2)CCC4)cc1	–	–	–	39.8 µM (inconclusive)	AC50 (Cytochrome P450 2C9): 22.4 µM (inconclusive)
CCn1c(=O)c(C(=O)O)c(Cl)c2cc3c(cc21)OCO3	> 100 µM (inactive)	> 100 µM (inactive)	> 100 µM (inactive)	–	–
O=C(O)C(Cc1cccs1)NC(=O)C(F)(F)F (centres undefined)	> 100 µM (inactive)	> 100 µM (inactive)	> 57.9 µM (inactive)	–	–
CC(C)c1oc(=O)cc2c1C(O)C1OC(=O)C3(C)C(O)C4OC4C2(C)C13 (centres undefined) [NAGILACTONE]	2.52 µM (inactive)	1.46 µM (inactive)	0.365 µM (active)	–	–
CCN1C(=O)[C@H]2[C@H]3[C@H](O)[C@H](O)C/C(=N/O[C@@H](C)c4cn([C@H](CO)Cc5ccccc5)nn4)[C@@H]3CC[C@@H]2C1=O	–	–	–	3.16 µM (inconclusive) and 5.01 µM (inconclusive)	–
Clc1ccc(-n2cc(COCc3ccccc3)nn2)cc1	–	–	–	–	EC50 [1]: > 260 µM (inconclusive); IC50 [2]: > 47.1 µM (inactive); EC50 [3]: > 53 µM (inactive)
COCC(=O)N1CCC[C@@]2(CCN(Cc3ccc(C#N)cc3)C2)C1	–	–	–	12.6 µM (inconclusive)	–
Nc1ncnc2c1nc(Cl)n2[C@@H]1O[C@@H]2COP(=O)(O)O[C@H]2[C@H]1O [TOCLADESINE]	4.53 µM (inactive)	7.26 µM (inactive)	36.7 µM (inactive)	–	–
COc1ccc(/C=N/OCc2nc3c4c(ncn3n2)Oc2ccc3ccccc3c2C4c2ccccc2)cc1 (centres undefined)	–	–	–	39.8 µM (inconclusive)	AC50 (Cytochrome P450 2C9): 1.26 µM (inconclusive)
Cn1cnnc1SCC(=O)n1c2ccccc2c2ccccc21	–	–	–	25.1 µM (inconclusive)	AC50 (Cytochrome P450 2C9): 0.00562 µM (inconclusive)
COCCNC(=O)COc1ccc(OCCNC[C@@H](O)COc2ccccc2)cc1	–	–	–	31.6 µM (inconclusive)	–
N=C(Nc1ccc(I)cc1)NC1C2CC3CC(C2)CC1C3 (centres undefined)	–	–	–	15.8 µM (inconclusive)	AC50 (Cytochrome P450 1A2): 39.8 µM (inconclusive)
OCC1OC(n2cnc3c2NC=NC[C@H]3O)C(O)C1O (some centres undefined)	> 366 µM (inactive)	224 µM (inactive)	> 366 µM (inactive)	–	–
COc1cc(-c2ccc3cc(OC)c(OC)c(OC)c3c2)cc(OC)c1OC	–	–	–	–	IC50 [2]: > 47.1 µM (inactive); EC50 [3]: > 53 µM (inactive)
CC1(C)N=C(N)N=C(N)N1c1ccc(CCc2ccccc2)cc1	22.2 µM (inactive)	0.533 µM (active)	< 0.01 µM (active)	–	–
O=c1onc2cnc3ccccc3n12	–	–	–	31.6 µM (inconclusive)	AC50 (Cytochrome P450 2C9): 39.8 µM (inconclusive)
CS(=O)(=O)OCCCNCCCOS(C)(=O)=O	392 µM (inactive)	753 µM (inactive)	418 µM (inactive)	–	–
C[C@]12CC[C@H](OC3OC(CO)C(O)C(O)C3O)C[C@H]1CC[C@@H]1[C@@H]2CC[C@]2(C)[C@@H](C3=CCOC3=O)CC[C@]12O (some centres undefined) [ACTODIGIN]	6.12 µM (inactive)	11 µM (inactive)	7.76 µM (inactive)	–	–
O=C(NCc1csc(-c2cccs2)n1)c1ccccc1	–	–	–	–	IC50 [2]: > 47.1 µM (inactive); EC50 [3]: > 53 µM (inactive)
